Data reported in patent US5262411A, “Isocephem derivatives, and antimicrobial composition containing the derivatives” (Otsuka Pharmaceutical Co., Ltd., priority 1989, dated 1993).
Converted amounts (≈) assume the structure as drawn. Where two headings read alike, the source gives them in different places.

Experiments:
Type in all cases: cell-based
P. aeruginosa E-2 = assay: MIC against P. aeruginosa E-2 by the plate diluted method; conditions: Pseudomonas aeruginosa, E2; P. aeruginosa E-2; 1×10^6 cells/ml; read-out: MIC
Description: (§1) In order to investigate the in vitro activity of the test compounds against various bacteria, the minimal inhibitory concentration (MIC) values were determined by the plate diluted method (See CHEMOTHERAPY, 22, 1126-1128, 1974.)
(§2) Each strain was adjusted to 1×10^6 cells/ml (O.D. 600 mμ, 0.07 to 0.16).

P. aeruginosa ATCC-10145 = assay: MIC against P. aeruginosa ATCC-10145 by the plate diluted method; conditions: Pseudomonas aeruginosa, ATCC10145; P. aeruginosa ATCC-10145; 1×10^6 cells/ml; read-out: MIC
Description: as §1, §2

E. coli No. 29 = assay: MIC against E. coli No. 29 by the plate diluted method; conditions: Escherichia coli, 1×10^6 cells/ml
Description: as §1, §2

S. marcescens IFO 12648 = assay: MIC against S. marcescens IFO 12648 by the plate diluted method; conditions: Serratia marcescens, IFO12648; S. marcescens IFO 12648; 1×10^6 cells/ml; read-out: MIC
Description: as §1, §2

K. pneumoniae NCTC-9632 = assay: MIC against K. pneumoniae NCTC-9632 by the plate diluted method; conditions: Klebsiella pneumoniae, NCTC9632; K. pneumoniae NCTC-9632; 1×10^6 cells/ml; read-out: MIC
Description: as §1, §2

A. calcoaceticus Ac-54 = assay: MIC against A. calcoaceticus Ac-54 by the plate diluted method; conditions: Acinetobacter calcoaceticus, AC54; A. calcoaceticus Ac-54; 1×10^6 cells/ml; read-out: MIC
Description: as §1, §2

M. moganii IIDkono = assay: MIC against M. moganii IIDkono by the plate diluted method
Description: as §1, §2

S. aureaus FDA-209P = assay: MIC against S. aureaus FDA-209P by the plate diluted method; conditions: Staphylococcus aureus, FDA209P
Description: as §1, §2

[1] = M. moganii IIDkono, 1×10^6 cells/ml, read-out: MIC
[2] = S. aureaus FDA-209P, 1×10^6 cells/ml, read-out: MIC

| Structure (SMILES) | MIC (P. aeruginosa E-2) [µg/mL] | MIC (P. aeruginosa ATCC-10145) [µg/mL] | MIC (E. coli No. 29) [µg/mL] | MIC (S. marcescens IFO 12648) [µg/mL] | MIC (K. pneumoniae NCTC-9632) [µg/mL] | MIC (A. calcoaceticus Ac-54) [µg/mL] | MIC (M. moganii IIDkono; [1]) [µg/mL] | MIC (S. aureaus FDA-209P; [2]) [µg/mL] | MIC (S. aureaus FDA-209P) [µg/mL] | MIC (M. moganii IIDkono) [µg/mL] |
| --- | --- | --- | --- | --- | --- | --- | --- | --- | --- | --- |
| CO/N=C(\C(=O)N[C@@H]1C(=O)N2C(C(=O)[O-])=C(CSc3cc[n+](CC(=O)c4ccc(O)c(O)c4)cc3)CS[C@H]12)c1csc(N)n1 [No. 17, (6R,7R)-[(Z)-2-(2-aminothiazol-4-yl)-2-methoxyiminoacetamide]-3-[[1-[2-(3,4-dihydroxyphenyl)-2-oxo]ethyl]-4-pyridinio]thiomethyl-3-cephem-4-carboxylat] | 0.39 (≈ 0.594 µM) | 0.2 (≈ 0.305 µM) | 0.012 (≈ 0.0183 µM) | 0.05 (≈ 0.0761 µM) | 0.012 (≈ 0.0183 µM) | 0.1 (≈ 0.152 µM) | 0.1 (≈ 0.152 µM) | 0.39 (≈ 0.594 µM) | – | – |
| Nc1nc(/C(=N/OCc2cc(=O)c(O)cn2O)C(=O)N[C@@H]2C(=O)N3C(C(=O)O)=C(CSc4nnc(N)s4)SC[C@H]23)cs1 [No. 10, (6S,7S)-7-[(Z)-2-(2-aminothiazol-4-yl)-2-(1,5-dihydroxy-4-pyridone-2-ylmethoxyimino)acetamide]-3-(2-amino-1,3,4-thiadiazol-5-ylthiomethyl)isocephem-4-carboxylic acid] | 0.2 (≈ 0.306 µM) | 0.1 (≈ 0.153 µM) | 0.05 (≈ 0.0765 µM) | 0.05 (≈ 0.0765 µM) | 0.05 (≈ 0.0765 µM) | 0.78 (≈ 1.19 µM) | 0.05 (≈ 0.0765 µM) | 50 (≈ 76.5 µM) | – | – |
| Nc1nc(/C(=N/OCc2cc(=O)c(O)cn2O)C(=O)N[C@@H]2C(=O)N3C(C(=O)O)=C(CSc4nnnn4CC(=O)O)SC[C@H]23)cs1 [No. 9, (6S,7S)-7-[(Z)-2-(2-aminothiazol-4-yl)-2-(1,5-dihydroxy-4-pyridone-2-ylmethoxyimino)acetamide]-3-(1-carboxymethyl-1H-tetrazole-5-ylthiomethyl)isocephem-4-carboxylic acid] | 0.05 (≈ 0.0735 µM) | 0.05 (≈ 0.0735 µM) | 0.012 (≈ 0.0176 µM) | 0.012 (≈ 0.0176 µM) | ≤ 0.006 | 0.012 (≈ 0.0176 µM) | 0.024 (≈ 0.0353 µM) | 100 (≈ 147 µM) | – | – |
| Nc1nc(/C(=N/OCc2cc(=O)c(O)cn2O)C(=O)N[C@@H]2C(=O)N3C(C(=O)O)=C(CSc4nncs4)SC[C@H]23)cs1 [No. 2, (6S,7S)-7-[(Z)-2-(2-Aminothiazol-4-yl)-2-(1,5-dihydroxy-4-pyridone-2-ylmethoxyimino)acetamide]-3-(1,3,4-thiadiazol-5-yl)thiomethyl-isocephem-4-carboxylic acid] | 0.05 (≈ 0.0783 µM) | 0.05 (≈ 0.0783 µM) | 0.024 (≈ 0.0376 µM) | 0.05 (≈ 0.0783 µM) | ≤ 0.006 | 0.1 (≈ 0.157 µM) | 0.1 (≈ 0.157 µM) | 12.5 (≈ 19.6 µM) | – | – |
| Cc1nnc(SCC2=C(C(=O)O)N3C(=O)[C@@H](NC(=O)/C(=N\OCc4ccc(O)c(O)c4)c4csc(N)n4)[C@H]3CS2)s1 [No. 5, (6S,7S)-7-[(Z)-2-(2-aminothiazol-4-yl)-2-(3,4-dihydroxyphenylmethoxyimino)]acetamide-3-(2-methyl-1,3,4-thiadiazol-5-ylthiomethyl)isocephem-4-carboxylic acid] | 0.39 (≈ 0.613 µM) | 0.39 (≈ 0.613 µM) | 0.012 (≈ 0.0189 µM) | 0.05 (≈ 0.0786 µM) | 0.012 (≈ 0.0189 µM) | 0.39 (≈ 0.613 µM) | 0.05 (≈ 0.0786 µM) | – | 1.56 (≈ 2.45 µM) | – |
| Nc1nc(/C(=N/OCc2cc(=O)c(O)cn2O)C(=O)N[C@@H]2C(=O)N3C(C(=O)[O-])=C(CSc4cc[n+](CC(=O)O)cc4)SC[C@H]23)cs1 [No. 12, (6S,7S)-7-[(Z)-2-(2-aminothiazol-4-yl)-2-(1,5-dihydroxy-4-pyridone-2-ylmethoxyimino)acetamide]-3-[(1-carboxymethyl-4-pyridinio)thiomethyl]isocephem-4-carboxylate] | 0.2 (≈ 0.29 µM) | 0.1 (≈ 0.145 µM) | 0.012 (≈ 0.0174 µM) | 0.05 (≈ 0.0725 µM) | ≤ 0.006 | 0.39 (≈ 0.565 µM) | 0.1 (≈ 0.145 µM) | 12.5 (≈ 18.1 µM) | – | – |
| CC(C)(O/N=C(\C(=O)N[C@@H]1C(=O)N2C(C(=O)[O-])=C(CSc3cc[n+](CC(=O)NNC(=O)c4ccc(O)c(O)c4)cc3)CS[C@H]12)c1csc(N)n1)C(=O)O [No. 15, (6R,7R)-7-[(Z)-2-(2-aminothiazol-4-yl)-2-(1-carboxy-1-methylethoxy)imino]acetamide-3-[1-(N-3,4-dihydroxybenzamide)carbamoylmethyl-4-pyridinio]thiomethyl-3-cephem-4-carboxylate] | 0.05 (≈ 0.0635 µM) | 0.05 (≈ 0.0635 µM) | 0.012 (≈ 0.0153 µM) | 0.05 (≈ 0.0635 µM) | 0.012 (≈ 0.0153 µM) | 0.1 (≈ 0.127 µM) | – | – | 3.13 (≈ 3.98 µM) | 0.05 (≈ 0.0635 µM) |
| CC(C)(O/N=C(\C(=O)N[C@@H]1C(=O)N2C(C(=O)[O-])=C(CSc3cc[n+](CC(=O)c4ccc(O)c(O)c4)cc3)CS[C@H]12)c1csc(N)n1)C(=O)O [No. 16, (6R,7R)-7-[(Z)-2-(2-aminothiazol-4-yl)-2-(1-carboxy-1-methylethoxy)iminoacetamide]-3-[[1-[2-(3,4-dihydroxyphenyl)-2-oxo]ethyl]-4-pyridinio]thiomethyl-3-cephem-4-carboxylate] | 0.1 (≈ 0.137 µM) | 0.1 (≈ 0.137 µM) | 0.012 (≈ 0.0165 µM) | 0.024 (≈ 0.0329 µM) | 0.012 (≈ 0.0165 µM) | 0.05 (≈ 0.0686 µM) | 0.05 (≈ 0.0686 µM) | – | 1.56 (≈ 2.14 µM) | – |
| Nc1nc(/C(=N/OCC(=O)O)C(=O)N[C@@H]2C(=O)N3C(C(=O)[O-])=C(CSc4cc[n+](CC(=O)c5ccc(O)c(O)c5)cc4)OC[C@H]23)cs1 [No. 8, (6S,7S)-7-[(Z)-2-(2-aminothiazol-4-yl)-2-(1-carboxymethoxy)iminoacetamide]-3 {[1-[2-(3,4-dihydroxyphenyl)-2-oxo]ethyl]-4-pyridinio}thiomethyl-Δ^3 -O-2-isocephem-4-carboxylate] | 0.1 (≈ 0.146 µM) | 0.05 (≈ 0.073 µM) | ≤ 0.006 | 0.024 (≈ 0.0351 µM) | ≤ 0.006 | 0.05 (≈ 0.073 µM) | 0.024 (≈ 0.0351 µM) | – | 1.56 (≈ 2.28 µM) | – |
| CC(C)(O/N=C(\C(=O)N[C@@H]1C(=O)N2C(C(=O)[O-])=C(CSc3cc[n+](CC(=O)c4ccc(O)c(O)c4)cc3)SC[C@H]12)c1csc(N)n1)C(=O)O [No. 3, (6S,7S)-7-[(Z)-2-(2-aminothiazol-4-yl)-2-(1-carboxy-1-methylethoxy)iminoacetamide]-3-{[1-[2-(3,4-dihydroxyphenyl)-2-oxo]ethyl]-4-pyridinio}thiomethylisocephem-4-carboxylate] | 0.05 (≈ 0.0686 µM) | 0.05 (≈ 0.0686 µM) | ≤ 0.006 | 0.024 (≈ 0.0329 µM) | ≤ 0.006 | 0.1 (≈ 0.137 µM) | 0.024 (≈ 0.0329 µM) | 0.78 (≈ 1.07 µM) | – | – |
| CC(C)(O/N=C(\C(=O)N[C@@H]1C(=O)N2C(C(=O)[O-])=C(CSc3cc[n+](Cc4cc(=O)c(O)c[nH]4)cc3)SC[C@H]12)c1csc(N)n1)C(=O)O [No. 7, (6S,7S)-7-[(Z)-2-(2-aminothiazol-4-yl)-2-(1-carboxy-1-methylethoxy)imino]acetamide-3-[(5-hydroxy-4-pyridone-2-yl)methyl-4-pyridinio]thiomethylisocephem-4-carboxylate] | 0.1 (≈ 0.142 µM) | 0.1 (≈ 0.142 µM) | 0.012 (≈ 0.0171 µM) | 0.012 (≈ 0.0171 µM) | 0.012 (≈ 0.0171 µM) | 0.2 (≈ 0.285 µM) | 0.024 (≈ 0.0342 µM) | – | 3.13 (≈ 4.46 µM) | – |
| Cc1nnc(SCC2=C(C(=O)O)N3C(=O)[C@@H](NC(=O)/C(=N\OC(C(=O)O)c4ccc(O)c(O)c4)c4csc(N)n4)[C@H]3CS2)s1 (stereo partly drawn) [No. 6, (6S,7S)-7-{(Z)-2-(2-aminothiazol-4-yl)-2-[carboxy(3,4-dihydroxyphenol)methoxyimino]}acetamide-3-(2-methyl-1,3,4-thiadiazol-5-ylthiomethyl)isocephem-4-carboxylic acid] | 0.39 (≈ 0.574 µM) | 0.2 (≈ 0.294 µM) | 0.012 (≈ 0.0177 µM) | 0.012 (≈ 0.0177 µM) | ≤ 0.006 | 0.2 (≈ 0.294 µM) | 0.024 (≈ 0.0353 µM) | – | 3.13 (≈ 4.6 µM) | – |
